Measured values from publication PMC11352409, “Subtype-Specific Ligand Binding and Activation Gating in Homomeric and Heteromeric P2X Receptors” (Biomolecules, 2024).

Biological target: T1, human P2X2 receptors (Homo sapiens, UniProt Q9UBL9)
T1 construct: expressed in transfected cells
T1 sequence (Q9UBL9 1-404 isoform Q9UBL9-2): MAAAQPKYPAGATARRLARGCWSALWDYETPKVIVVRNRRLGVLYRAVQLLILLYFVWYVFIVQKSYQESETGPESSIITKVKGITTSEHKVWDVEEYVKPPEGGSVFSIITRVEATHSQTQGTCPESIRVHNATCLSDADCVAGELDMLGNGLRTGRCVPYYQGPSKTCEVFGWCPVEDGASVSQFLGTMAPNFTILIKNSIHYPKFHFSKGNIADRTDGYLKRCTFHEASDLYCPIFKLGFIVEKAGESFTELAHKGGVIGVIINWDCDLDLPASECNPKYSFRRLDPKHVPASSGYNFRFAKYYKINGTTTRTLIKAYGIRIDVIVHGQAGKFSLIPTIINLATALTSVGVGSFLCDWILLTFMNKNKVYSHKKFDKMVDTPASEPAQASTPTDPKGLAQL
Assay: Confocal microscopy binding of fluorescent ATP derivatives to HEK293 cells expressing hP2X2
Conditions: for Binding to receptor: hP2X2, confocal binding signal
Description: For the detection of ligand binding, the cells were incubated with the fluorescent ATP derivatives in chambered coverslips or 96-well plates with cover-slip bottoms. The surface was coated with 0.1 mg/mL of poly-L-lysine for 12 h and washed twice with PBS before seeding the cells at […] density. The cells were suspended 24 h after induction and allowed to settle for two hours before being utilised for the measurements. The solutions were freshly prepared before each experiment. The bulk solution was counter-stained with the red fluorescence dye Dy647. Each confocal voxel covering the cell membrane contained both the signal from the bound ligand and the signal from ligands in the bulk solution. This additional signal, e.g., the fraction of the bulk solution inside a voxel, varied from pixel to pixel and can hardly be described theoretically.
Figure 2 Confocal microscopy was used to characterise the binding of fluorescently tagged ligands to HEK 293 cells stably expressing human P2X2 receptors. (a) Structure of fATP and α,βMe-fATP. The dye DY547P1 is attached to the 2-position of the purine ring through an aminohexylthio-linker. (b) Representative confocal images for quantification of fATP and α,βMe-fATP binding, including approximately 200 stably transfected cells/mm^2. Specific binding is proven by the lack of signal in non-induced cells and in cells expressing P2X2 receptors in the presence of 100 µM ATP. […]
The concentration–binding relationships were normalised to their maximum relative fluorescence intensities at a saturating fATP or α,βMe-fATP concentration.
Measuring the binding of ligands to receptors is challenging. […] Ligand binding was measured in stably transfected HEK293 cells expressing P2X receptors, attached to the glass bottom of the experimental chamber (Figure 2b). Quantifying ligand binding by automated fluorescence methods remains demanding at low expression levels and high ligand concentrations when the background signal becomes significant. To address this issue, we used the red fluorescence dye Dy647 at a concentration of 1 µM [27, 33, 34]. […]

| Binding to receptor | Fraction of ligand remaining bound at high Mg2+ (hP2X2, fATP binding after application of 10 mM Mg2+) | SMILES |
| --- | --- | --- |
| robust binding affinity | ~ 40% | COCC[N+]1=C(C=CC=C2N(CCCCCC(=O)NCCCCCCSc3nc(N)c4ncn(C5OC(COP(=O)(O)OP(=O)(O)OP(=O)(O)O)C(O)C5O)c4n3)c3ccc(S(=O)(=O)O)cc3C2(C)C)C(C)(C)c2cc(S(=O)(=O)[O-])ccc21 (stereo not drawn) [fATP, 2-[DY-547P1]-AHT-ATP] |
| robust binding affinity |  | COCC[N+]1=C(C=CC=C2N(CCCCCC(=O)NCCCCCCSc3nc(N)c4ncn(C5OC(COP(=O)(O)CP(=O)(O)OP(=O)(O)O)C(O)C5O)c4n3)c3ccc(S(=O)(=O)O)cc3C2(C)C)C(C)(C)c2cc(S(=O)(=O)[O-])ccc21 (stereo not drawn) [α,βMe-fATP, 2-[DY-547P1]-AHT-α,βMe-ATP] |
